Measurements reported in PubChem BioAssay (NCI).
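GI50 = concentration required for 50% inhibition of growth. TGI marks complete inhibition of growth.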

How the values were obtained:
Assay in all cases: NCI-60 cell line screen, 384-well format
SNB-75 CNS = tested on: SNB-75 CNS
TK-10 renal = tested on: TK-10 renal
SK-MEL-5 melanoma = tested on: SK-MEL-5 melanoma
HCT-15 colon = tested on: HCT-15 colon
HOP-92 NSCLC = tested on: HOP-92 NSCLC
HS 578T breast = tested on: HS 578T breast
U251 glioblastoma = tested on: U251 glioblastoma
MOLT-4 leukemia = tested on: MOLT-4 leukemia
SR leukemia = tested on: SR leukemia
DU-145 prostate = tested on: DU-145 prostate
K-562 leukemia = tested on: K-562 leukemia
M14 melanoma = tested on: M14 melanoma
SK-MEL-2 melanoma = tested on: SK-MEL-2 melanoma

## O=C1Nc2ccc(I)cc2/C1=C/c1cc(Br)c(O)c(Br)c1
SNB-75 CNS
  GI50: 25.7 µM
  TGI: 51.8 µM
TK-10 renal
  GI50: 21.6 µM
  TGI: 78.1 µM
SK-MEL-5 melanoma
  GI50: 12.3 µM
  TGI: 24.8 µM
HCT-15 colon
  GI50: 15.7 µM
  TGI: 30.6 µM
HOP-92 NSCLC
  GI50: 15.6 µM
  TGI: 31.9 µM
HS 578T breast
  GI50: 14.4 µM
  TGI: 28.5 µM
U251 glioblastoma
  GI50: 11.7 µM
  TGI: 24.3 µM
MOLT-4 leukemia
  GI50: 13.4 µM
  TGI: 26.2 µM
SR leukemia
  GI50: 6.31 µM
  TGI: 18.8 µM
DU-145 prostate
  GI50: 22.9 µM
  TGI: 88.9 µM
K-562 leukemia
  GI50: 17 µM
  TGI: 31.1 µM
M14 melanoma
  GI50: 4.38 µM
  TGI: 18.6 µM
SK-MEL-2 melanoma
  GI50: 15.4 µM
  TGI: 30.7 µM
